Structures are written as SMILES.

Series [1] deals with MDA-MB-231. Briefly: MTT assay, MDA-MB-231. In kind it is cell-based. Also on record: scale not given here. Conditions: MDA-MB-231, TNBC cell line, 24 hours. From the text:
(§1) The 4T1 murine mammary tumor cell line and nine breast cancer cell lines representing the major breast cancer subtypes (ER+, HER2+, and TNBC) including MDA-MB-157, MDA-MB-436, MDA-MB-231, MDA-MB-453, MDA-MB-361, BT-474, SK-BR-3, MCF-7 and T47-D will be grown in RPMI or DMEM (Dulbecco's Modified Eagle Medium) media supplemented with 10% FBS (fetal bovine serum), 1% penicillin-streptomycin and 1% L-Glutamine. Patient derived xenograft cell lines BR7, BR11, and IBT will be established directly from breast cancer bone metastases specimens surgically resected from patients with informed consent. BR7 and BR11 specimens will be obtained from ER positive (HER2 negative and PR negative) metastatic breast cancer patients, while the IBT specimen will be obtained from a metastatic, triple negative breast cancer patient. Fresh tumor tissues will be quickly washed with ice cold PBS and minced into about 1-3 mm pieces in MEM medium (without FBS) using sterile razor blades. […] The cells will be treated with either 100 μM DMSO, AGX51, or a compound of the present technology such as AGX-A. The cell morphology and growth will be monitored daily for 1 week by microscopy for changes in morphology or cell death. […] Absorbance will then measured at 570 nm using a plate reader (Synergy 2, BioTek). […]

Series [2] deals with MDA-MB-361. Briefly: MTT assay, MDA-MB-361. It counts as cell-based. Conditions: MDA-MB-361, HER-2 +ve cell line, 24 hours.
Excerpt: as §1

Series [3] deals with PDX-BR7. Nature of the series: MTT assay, PDX-BR7. It counts as cell-based. The note with it: 24 h, PDX-BR7, PDX cell line, read-out: IC50 value after 24 hours of treatment.
Excerpt: as §1
On the technique in general: Tetrazolium dyes change colour on reduction, which living cells bring about.

Series [4] can be described thus: Concentration of AGX51 in the eyes after i.p. dosing. It counts as in vivo, mouse. Conditions: 30 mg/kg i.p. As for the experimental part:
Pharmacokinetic analyses. To determine the pharmacokinetic parameters of AGX51, eight-week old male Balb/c mice (Taconic farms) were dosed once by i.p. injection with 30 mg/kg, 50 mg/kg or 100 mg/kg AGX51 prepared in 70% DMSO (n=3 mice per group). Another set of three mice was dosed with 100 mg/kg AGX51 prepared in 100% DMSO. Blood was collected at 30 minutes, 1 hour, 3 hours, 6 hours and 24 hours post AGX51 administration and plasma analyzed via LC-MS as per the protocol previously validated in the MSKCC Antitumor Assessment Core Facility. Following blood collection, the mice were sacrificed via CO2 asphyxiation and the eyes from the 30 mg/kg treatment group were collected and flash frozen for analysis. Data obtained from LC-MS was analyzed via WinNonLin software (version 8.1) for pharmacokinetic parameters.
The concentration of AGX51 was thus measured in the eyes of mice dosed i.p. with 30 mg/kg AGX51 by mass spectrometry over 24 hours. […] The amount of AGX51 reaching the eye was well below the amount required by intraocular injection to show efficacy, which could be due to incomplete recovery from the extraction of dissected eyes or that effective dose ranges vary considerably with delivery route.

Series [5] has as its system MCF-7. Briefly: MTT assay, MCF-7. It counts as cell-based. The note with it: Homo sapiens, MCF7, 24 h, MCF-7, ER +ve cell line, read-out: IC50 value after 24 hours of treatment.
Excerpt: as §1

Series [6] relates to SK-BR-3. Nature of the series: MTT assay, SK-BR-3. In kind it is cell-based. Conditions: Homo sapiens, 24 h, SK-BR-3, HER-2 +ve cell line, read-out: IC50 value after 24 hours of treatment.
Excerpt: as §1

The subject of series [7] is MDA-MB-453. Nature of the series: MTT assay, MDA-MB-453. Conditions: MDA-MB-453, HER-2 +ve cell line, 24 hours. Details: scale not given here. In kind it is cell-based.
Excerpt: as §1

The subject of series [8] is lung metastases. Nature of the series: LLC metastasis model. Conditions: daily ip. It counts as in vivo, mouse. The method, then: Thirty C57BL/6 mice will be implanted with 7.5×10^5 LLC cancer cells/animal. Seven days after implantation, 5M/5F per group will be treated daily ip for 25 days with dosing vehicle (DMSO), AGX51, or a compound of the present technology (such as AGX-A). Fourteen days after implantation, another group of 5M/5F animals will be treated daily ip for 18 days with 50 mg/kg of AGX51 and another group of 5M/5F animals will be treated daily ip for 18 days with a compound of the present technology (such as AGX-A). Tumors will be measured three times from Day 7 to 14. On Day 14, the tumors will be excised. The animals will be necropsied for the presence of lung metastases on day 32, 18 days post excision.

Series [9] relates to MDA-MB-157. Briefly: MTT assay, MDA-MB-157. It counts as cell-based. The note with it: Homo sapiens, 24 h, MDA-MB-157, TNBC cell line, read-out: IC50 value after 24 hours of treatment.
Excerpt: as §1

The term IC50 denotes the point on the concentration scale where inhibition reaches its midpoint. For the compound `CCC(=O)N(CCC(c1ccc2c(c1)OCO2)c1ccccc1OC)Cc1ccccc1` (racemic) [AGX51, N-(3-(benzo[d][1,3]dioxol-5-yl)-3-(2-methoxyphenyl)propyl)-N-benzylpropionamide], the “percentage at 60 μM (IC50 NA)” value is reported as “NA (60 μM = 70%)” in [1], “NA (60 μM = 53%)” in [2] and “NA (60 μM = 57%)” in [7]. Also, the IC50 in series [3] came out at 10.9 µM; in [5], 60 µM; in series [6], 36.6 µM; in series [9], 22.3 µM. In series [4], the “half-life in the eye” value was found to be 3.7 h. For the same compound, in series [4] (after 30 minutes), the “maximum concentration in the eye” value was roughly 4 ng/eye. Moreover, in series [8], the lung metastases entry is given as “profoundly diminish lung metastases”.

The values are drawn from US20220356163A1, “SMALL MOLECULE INHIBITORS OF Id PROTEINS” (MEMORIAL SLOAN KETTERING CANCER CENTER, priority 2019, published 2022).
